This is an account of results in ChEMBL document CHEMBL3091419, “Cytidine derivatives as IspF inhibitors of Burkolderia pseudomallei” (Bioorg Med Chem Lett, 2013).

Activity calls are given as the source filed them. The calls are words filed in the database; no cut-off is given here.

Test [1] concerns Plasmodium falciparum. Put plainly: Antimicrobial activity against Plasmodium falciparum W2 at 40 uM. The test is classed as functional, organism-based.
The test system of test [2] is Plasmodium falciparum. Put plainly: Antimicrobial activity against Plasmodium falciparum C235 at 40 uM. Format: functional, organism-based.
The subject of test [3] is Burkholderia thailandensis. The test can be described thus: Antimicrobial activity against Burkholderia thailandensis at 1 mM. Format: functional.
Test [4] has as its system Plasmodium falciparum. The test can be described thus: Antimicrobial activity against Plasmodium falciparum D6 at 40 uM. Format: functional, organism-based.
Test [5] addresses T1, 2-C-methyl-D-erythritol 2,4-cyclodiphosphate synthase (Burkholderia pseudomallei (strain K96243), UniProt Q63T71).
T1 sequence (Q63T71 whole entry): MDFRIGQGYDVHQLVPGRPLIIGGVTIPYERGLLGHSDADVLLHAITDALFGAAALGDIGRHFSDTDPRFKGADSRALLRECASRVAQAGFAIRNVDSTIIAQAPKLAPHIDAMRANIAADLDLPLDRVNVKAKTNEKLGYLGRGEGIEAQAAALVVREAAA
Put plainly: Binding affinity to Burkolderia pseudomallei IspF by surface plasmon resonance method.

For `Nc1ccn([C@@H]2O[C@H](CNC(=O)c3cscn3)[C@@H](O)[C@H]2O)c(=O)n1`, the result (in the test on Plasmodium falciparum [1]; in the test with Plasmodium falciparum [2]; in test [3]; with Plasmodium falciparum [4]) was inactive. This molecule also gave a Kd in test [5] of 200 µM.
Molecule `OCc1cn2ccsc2n1` returned a Kd in test [5] of 135 µM.
For the molecule `Nc1ccn([C@@H]2O[C@H](CNC(=O)Cc3cn4ccsc4n3)[C@@H](O)[C@H]2O)c(=O)n1`, the outcome (in the test with Plasmodium falciparum [1]; in the test on Plasmodium falciparum [2]; in test [3]; with Plasmodium falciparum [4]) was inactive. Moreover, in test [5], the affinity, expressed as Kd, was 148 µM.
Consider `Nc1ccn([C@@H]2O[C@H](CNC(=O)c3ccnc4nc[nH]c34)[C@@H](O)[C@H]2O)c(=O)n1`, for which the result (in the test with Plasmodium falciparum [1]; in the test with Plasmodium falciparum [2]; in test [3]; in the test on Plasmodium falciparum [4]) was inactive. In test [5], this molecule registered a Kd of 90 µM.
For `Nc1ccn([C@@H]2O[C@H](CNC(=O)c3cn4ccsc4n3)[C@@H](O)[C@H]2O)c(=O)n1`, the outcome (in the test on Plasmodium falciparum [1]; with Plasmodium falciparum [2]; in test [3]; with Plasmodium falciparum [4]) was inactive. In addition, the Kd in test [5] was determined as 70 µM.
Regarding `Oc1ccc(-n2ccnc2)cc1`, the Kd in test [5] is more than 500 µM.
Consider `Nc1ccn([C@@H]2O[C@H](CNC(=O)c3ccncc3)[C@@H](O)[C@H]2O)c(=O)n1`, for which the outcome (in the test on Plasmodium falciparum [1]; in the test with Plasmodium falciparum [2]; in test [3]; in the test with Plasmodium falciparum [4]) was inactive. In test [5], this molecule showed a Kd of 180 µM.
